Results published in ChEMBL document CHEMBL4507315 (2021).

How the values were obtained:
[1] = test system: Mast/stem cell growth factor receptor Kit (Homo sapiens), P10721 [D816H]; conditions: Compound concentration 100.0 nM
[2] = biological target: Fibroblast growth factor receptor 4 (Homo sapiens) (UniProt P22455); conditions: Compound concentration 100.0 nM
[3] = biological target: Insulin receptor-related protein (Homo sapiens) (UniProt P14616); conditions: Compound concentration 100.0 nM
[4] = biological target: 5-hydroxytryptamine receptor 1B (Homo sapiens) (UniProt P28222); conditions: Compound concentration 10.0 uM
[5] = biological target: Epidermal growth factor receptor (Homo sapiens) (UniProt P00533); conditions: Compound concentration 100.0 nM
[6] = biological target: Phosphatidylinositol 4-phosphate 5-kinase type-1 gamma (Homo sapiens) (UniProt O60331); conditions: Compound concentration 100.0 nM
[7] = biological target: Serine/threonine-protein kinase WNK4 (Homo sapiens) (UniProt Q96J92); conditions: Compound concentration 100.0 nM
[8] = biological target: Ephrin type-A receptor 6 (Homo sapiens) (UniProt Q9UF33); conditions: Compound concentration 100.0 nM
[9] = biological target: Casein kinase I isoform gamma-3 (Homo sapiens) (UniProt Q9Y6M4); conditions: Compound concentration 100.0 nM
[10] = biological target: Serine/threonine-protein kinase 32A (Homo sapiens) (UniProt Q8WU08); conditions: Compound concentration 100.0 nM
[11] = biological target: Mitogen-activated protein kinase kinase kinase 5 (Homo sapiens) (UniProt Q99683); conditions: Compound concentration 100.0 nM
[12] = test system: Tyrosine-protein kinase ABL1 (Homo sapiens), P00519 [E255K]; conditions: Compound concentration 100.0 nM
[13] = biological target: Beta-3 adrenergic receptor (Homo sapiens) (UniProt P13945); conditions: Compound concentration 10.0 uM
[14] = biological target: Receptor tyrosine-protein kinase erbB-3 (Homo sapiens) (UniProt P21860); conditions: Compound concentration 100.0 nM
[15] = biological target: Dual specificity protein kinase TTK (Homo sapiens) (UniProt P33981); conditions: Compound concentration 100.0 nM
[16] = biological target: Bone morphogenetic protein receptor type-1A (Homo sapiens) (UniProt P36894); conditions: Compound concentration 100.0 nM
[17] = biological target: Tyrosine-protein kinase Fgr (Homo sapiens) (UniProt P09769); conditions: Compound concentration 100.0 nM
[18] = test system: Hepatocyte growth factor receptor (Homo sapiens), P08581 [M1250T]; conditions: Compound concentration 100.0 nM
[19] = biological target: Serine/threonine-protein kinase Nek6 (Homo sapiens) (UniProt Q9HC98); conditions: Compound concentration 100.0 nM
[20] = biological target: Homeodomain-interacting protein kinase 3 (Homo sapiens) (UniProt Q9H422); conditions: Compound concentration 100.0 nM
[21] = biological target: Serine/threonine-protein kinase 16 (Homo sapiens) (UniProt O75716); conditions: Compound concentration 100.0 nM
[22] = biological target: Epithelial discoidin domain-containing receptor 1 (Homo sapiens) (UniProt Q08345); conditions: Compound concentration 100.0 nM
[23] = biological target: Serine/threonine-protein kinase WNK1 (Homo sapiens) (UniProt Q9H4A3); conditions: Compound concentration 100.0 nM
[24] = biological target: Mitogen-activated protein kinase 9 (Homo sapiens) (UniProt P45984); conditions: Compound concentration 100.0 nM
[25] = biological target: Mitogen-activated protein kinase 15 (Homo sapiens) (UniProt Q8TD08); conditions: Compound concentration 100.0 nM
[26] = biological target: Homeodomain-interacting protein kinase 1 (Homo sapiens) (UniProt Q86Z02); conditions: Compound concentration 100.0 nM
[27] = biological target: Serine/threonine-protein kinase 4 (Homo sapiens) (UniProt Q13043); conditions: Compound concentration 100.0 nM
[28] = test system: Mast/stem cell growth factor receptor Kit (Homo sapiens), P10721 [V559D,T670I]; conditions: Compound concentration 100.0 nM
[29] = biological target: Rhodopsin kinase GRK1 (Homo sapiens) (UniProt Q15835); conditions: Compound concentration 100.0 nM
[30] = biological target: Tyrosine-protein kinase FRK (Homo sapiens) (UniProt P42685); conditions: Compound concentration 100.0 nM
[31] = biological target: Casein kinase I isoform gamma-2 (Homo sapiens) (UniProt P78368); conditions: Compound concentration 100.0 nM
[32] = test system: Tyrosine-protein kinase ABL1 (Homo sapiens), P00519 [H396P]; conditions: Compound concentration 100.0 nM
[33] = biological target: Serine/threonine-protein kinase Nek5 (Homo sapiens) (UniProt Q6P3R8); conditions: Compound concentration 100.0 nM
[34] = biological target: Serine/threonine-protein kinase TAO2 (Homo sapiens) (UniProt Q9UL54); conditions: Compound concentration 100.0 nM
[35] = biological target: Alpha-1B adrenergic receptor (Homo sapiens) (UniProt P35368); conditions: Compound concentration 10.0 uM
[36] = biological target: Leucine-rich repeat serine/threonine-protein kinase 2 (Homo sapiens) (UniProt Q5S007); conditions: Compound concentration 100.0 nM
[37] = biological target: Tyrosine-protein kinase receptor TYRO3 (Homo sapiens) (UniProt Q06418); conditions: Compound concentration 100.0 nM
[38] = biological target: Mitogen-activated protein kinase 1 (Homo sapiens) (UniProt P28482); conditions: Compound concentration 100.0 nM
[39] = biological target: Ephrin type-B receptor 3 (Homo sapiens) (UniProt P54753); conditions: Compound concentration 100.0 nM
[40] = biological target: 5'-AMP-activated protein kinase catalytic subunit alpha-2 (Homo sapiens) (UniProt P54646); conditions: Compound concentration 100.0 nM
[41] = biological target: Non-receptor tyrosine-protein kinase TNK1 (Homo sapiens) (UniProt Q13470); conditions: Compound concentration 100.0 nM
[42] = biological target: Hepatocyte growth factor receptor (Homo sapiens) (UniProt P08581); conditions: Compound concentration 100.0 nM
[43] = biological target: Serine/threonine-protein kinase Nek1 (Homo sapiens) (UniProt Q96PY6); conditions: Compound concentration 100.0 nM
[44] = biological target: Ephrin type-A receptor 2 (Homo sapiens) (UniProt P29317); conditions: Compound concentration 100.0 nM
[45] = biological target: Mitogen-activated protein kinase kinase kinase kinase 3 (Homo sapiens) (UniProt Q8IVH8); conditions: Compound concentration 100.0 nM

Serine/threonine-protein kinase TAO2 (Homo sapiens), sequence (Q9UL54 whole entry): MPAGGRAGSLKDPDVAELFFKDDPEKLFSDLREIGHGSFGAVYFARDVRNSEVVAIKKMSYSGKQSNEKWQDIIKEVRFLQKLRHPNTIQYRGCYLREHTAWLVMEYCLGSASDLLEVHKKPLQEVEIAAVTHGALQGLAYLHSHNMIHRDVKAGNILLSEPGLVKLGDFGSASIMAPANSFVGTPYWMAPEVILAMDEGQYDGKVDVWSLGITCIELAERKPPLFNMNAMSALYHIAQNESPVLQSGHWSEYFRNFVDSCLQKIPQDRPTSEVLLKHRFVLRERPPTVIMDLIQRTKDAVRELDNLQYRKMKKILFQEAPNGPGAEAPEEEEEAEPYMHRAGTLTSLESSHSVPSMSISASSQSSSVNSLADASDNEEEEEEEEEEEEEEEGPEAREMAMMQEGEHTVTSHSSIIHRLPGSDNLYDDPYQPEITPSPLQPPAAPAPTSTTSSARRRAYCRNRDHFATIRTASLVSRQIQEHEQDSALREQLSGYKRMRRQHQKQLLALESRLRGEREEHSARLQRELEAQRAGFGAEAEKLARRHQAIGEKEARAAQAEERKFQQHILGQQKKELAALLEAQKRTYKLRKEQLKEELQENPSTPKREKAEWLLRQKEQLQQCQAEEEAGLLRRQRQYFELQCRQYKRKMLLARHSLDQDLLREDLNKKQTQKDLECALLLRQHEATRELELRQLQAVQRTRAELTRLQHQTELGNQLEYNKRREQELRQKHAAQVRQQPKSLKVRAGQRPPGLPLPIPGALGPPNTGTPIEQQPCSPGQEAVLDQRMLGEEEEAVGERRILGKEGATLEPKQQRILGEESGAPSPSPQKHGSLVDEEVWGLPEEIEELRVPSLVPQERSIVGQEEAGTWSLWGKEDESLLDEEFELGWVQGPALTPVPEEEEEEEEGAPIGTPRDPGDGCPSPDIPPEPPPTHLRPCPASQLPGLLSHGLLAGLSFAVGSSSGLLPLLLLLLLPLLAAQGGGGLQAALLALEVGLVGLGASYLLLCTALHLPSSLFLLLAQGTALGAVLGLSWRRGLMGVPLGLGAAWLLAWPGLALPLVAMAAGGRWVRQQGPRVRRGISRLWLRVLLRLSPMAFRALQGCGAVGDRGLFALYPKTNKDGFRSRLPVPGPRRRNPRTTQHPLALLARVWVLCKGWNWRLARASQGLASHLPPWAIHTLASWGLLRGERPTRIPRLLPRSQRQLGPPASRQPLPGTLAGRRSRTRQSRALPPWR
Rhodopsin kinase GRK1 (Homo sapiens), sequence (Q15835 whole entry): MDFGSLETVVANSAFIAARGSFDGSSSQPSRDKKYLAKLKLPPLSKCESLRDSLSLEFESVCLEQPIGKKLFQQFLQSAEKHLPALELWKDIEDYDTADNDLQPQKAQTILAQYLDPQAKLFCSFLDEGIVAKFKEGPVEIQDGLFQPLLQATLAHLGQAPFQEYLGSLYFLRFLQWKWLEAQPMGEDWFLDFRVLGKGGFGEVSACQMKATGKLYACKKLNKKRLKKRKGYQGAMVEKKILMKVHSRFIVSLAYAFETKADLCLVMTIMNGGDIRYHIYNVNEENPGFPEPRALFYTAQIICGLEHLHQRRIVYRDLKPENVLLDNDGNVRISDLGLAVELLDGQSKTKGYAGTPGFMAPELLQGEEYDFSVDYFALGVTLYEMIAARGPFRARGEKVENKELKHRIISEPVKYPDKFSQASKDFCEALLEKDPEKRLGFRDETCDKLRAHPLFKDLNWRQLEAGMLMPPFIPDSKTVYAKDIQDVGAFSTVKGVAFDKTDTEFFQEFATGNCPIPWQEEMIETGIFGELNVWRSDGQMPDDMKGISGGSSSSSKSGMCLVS
Serine/threonine-protein kinase WNK4 (Homo sapiens), sequence (Q96J92 whole entry): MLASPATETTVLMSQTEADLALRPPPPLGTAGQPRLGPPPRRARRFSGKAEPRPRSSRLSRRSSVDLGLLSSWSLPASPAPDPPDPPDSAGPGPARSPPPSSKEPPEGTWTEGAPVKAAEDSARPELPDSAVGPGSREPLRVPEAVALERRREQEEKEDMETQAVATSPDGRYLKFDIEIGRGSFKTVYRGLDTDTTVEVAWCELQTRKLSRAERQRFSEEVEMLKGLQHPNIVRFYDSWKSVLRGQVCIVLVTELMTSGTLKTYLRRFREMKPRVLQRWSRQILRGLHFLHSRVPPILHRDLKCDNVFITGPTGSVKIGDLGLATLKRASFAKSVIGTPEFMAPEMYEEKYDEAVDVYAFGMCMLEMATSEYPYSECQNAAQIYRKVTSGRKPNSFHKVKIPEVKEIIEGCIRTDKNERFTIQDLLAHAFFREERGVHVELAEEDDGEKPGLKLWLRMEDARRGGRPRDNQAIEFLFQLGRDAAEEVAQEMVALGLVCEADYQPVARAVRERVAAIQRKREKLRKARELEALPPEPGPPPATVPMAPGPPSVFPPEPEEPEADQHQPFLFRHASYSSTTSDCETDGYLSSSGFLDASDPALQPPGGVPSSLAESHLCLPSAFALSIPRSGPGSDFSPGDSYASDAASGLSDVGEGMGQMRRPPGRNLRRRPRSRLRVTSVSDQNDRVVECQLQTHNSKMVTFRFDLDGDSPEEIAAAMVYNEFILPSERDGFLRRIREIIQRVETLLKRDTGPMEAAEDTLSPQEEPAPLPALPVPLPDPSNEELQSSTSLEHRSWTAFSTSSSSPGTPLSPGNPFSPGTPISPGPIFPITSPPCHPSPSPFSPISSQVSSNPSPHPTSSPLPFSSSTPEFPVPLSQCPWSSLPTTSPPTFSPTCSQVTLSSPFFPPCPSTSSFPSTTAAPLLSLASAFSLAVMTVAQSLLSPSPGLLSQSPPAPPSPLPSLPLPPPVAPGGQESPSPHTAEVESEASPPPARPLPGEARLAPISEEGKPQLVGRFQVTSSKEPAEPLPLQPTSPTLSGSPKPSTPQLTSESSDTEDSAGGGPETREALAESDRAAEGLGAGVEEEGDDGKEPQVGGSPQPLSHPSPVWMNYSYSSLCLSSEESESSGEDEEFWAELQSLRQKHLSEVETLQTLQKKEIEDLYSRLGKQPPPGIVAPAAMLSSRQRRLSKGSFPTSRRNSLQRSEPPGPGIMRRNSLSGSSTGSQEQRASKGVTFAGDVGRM
Serine/threonine-protein kinase 16 (Homo sapiens), sequence (O75716 whole entry, the tested form may be a part): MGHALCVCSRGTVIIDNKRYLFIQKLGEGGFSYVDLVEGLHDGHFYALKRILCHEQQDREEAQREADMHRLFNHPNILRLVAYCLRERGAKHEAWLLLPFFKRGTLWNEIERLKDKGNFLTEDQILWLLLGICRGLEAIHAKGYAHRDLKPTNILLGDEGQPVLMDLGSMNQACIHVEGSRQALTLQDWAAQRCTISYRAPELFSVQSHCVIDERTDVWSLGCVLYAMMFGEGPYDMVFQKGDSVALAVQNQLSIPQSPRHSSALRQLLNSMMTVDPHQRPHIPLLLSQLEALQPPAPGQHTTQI
5-hydroxytryptamine receptor 1B (Homo sapiens), sequence (P28222 whole entry): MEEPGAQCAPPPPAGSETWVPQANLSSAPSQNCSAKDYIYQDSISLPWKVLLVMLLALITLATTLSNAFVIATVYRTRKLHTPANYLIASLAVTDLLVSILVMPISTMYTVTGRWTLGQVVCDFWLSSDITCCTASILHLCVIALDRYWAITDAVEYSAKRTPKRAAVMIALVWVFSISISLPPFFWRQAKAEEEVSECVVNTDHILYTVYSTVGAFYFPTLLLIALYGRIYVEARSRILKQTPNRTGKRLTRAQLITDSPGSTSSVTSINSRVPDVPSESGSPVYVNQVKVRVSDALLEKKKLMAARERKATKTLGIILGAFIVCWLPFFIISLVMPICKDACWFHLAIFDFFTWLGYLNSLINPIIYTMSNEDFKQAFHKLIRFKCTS
Serine/threonine-protein kinase 4 (Homo sapiens), sequence (Q13043 whole entry): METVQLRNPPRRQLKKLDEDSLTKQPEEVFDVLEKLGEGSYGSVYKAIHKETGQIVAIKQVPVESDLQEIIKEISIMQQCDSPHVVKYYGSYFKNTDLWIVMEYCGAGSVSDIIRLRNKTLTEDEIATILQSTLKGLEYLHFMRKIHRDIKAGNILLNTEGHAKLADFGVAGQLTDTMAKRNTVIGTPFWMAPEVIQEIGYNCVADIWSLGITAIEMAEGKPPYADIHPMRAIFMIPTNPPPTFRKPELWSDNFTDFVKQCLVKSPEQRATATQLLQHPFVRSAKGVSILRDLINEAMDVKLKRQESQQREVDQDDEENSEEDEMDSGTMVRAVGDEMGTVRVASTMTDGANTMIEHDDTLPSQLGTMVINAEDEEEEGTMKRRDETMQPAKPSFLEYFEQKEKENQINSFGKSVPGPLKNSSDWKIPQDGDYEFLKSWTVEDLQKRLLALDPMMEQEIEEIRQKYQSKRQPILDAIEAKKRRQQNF
Serine/threonine-protein kinase Nek5 (Homo sapiens), sequence (Q6P3R8 whole entry): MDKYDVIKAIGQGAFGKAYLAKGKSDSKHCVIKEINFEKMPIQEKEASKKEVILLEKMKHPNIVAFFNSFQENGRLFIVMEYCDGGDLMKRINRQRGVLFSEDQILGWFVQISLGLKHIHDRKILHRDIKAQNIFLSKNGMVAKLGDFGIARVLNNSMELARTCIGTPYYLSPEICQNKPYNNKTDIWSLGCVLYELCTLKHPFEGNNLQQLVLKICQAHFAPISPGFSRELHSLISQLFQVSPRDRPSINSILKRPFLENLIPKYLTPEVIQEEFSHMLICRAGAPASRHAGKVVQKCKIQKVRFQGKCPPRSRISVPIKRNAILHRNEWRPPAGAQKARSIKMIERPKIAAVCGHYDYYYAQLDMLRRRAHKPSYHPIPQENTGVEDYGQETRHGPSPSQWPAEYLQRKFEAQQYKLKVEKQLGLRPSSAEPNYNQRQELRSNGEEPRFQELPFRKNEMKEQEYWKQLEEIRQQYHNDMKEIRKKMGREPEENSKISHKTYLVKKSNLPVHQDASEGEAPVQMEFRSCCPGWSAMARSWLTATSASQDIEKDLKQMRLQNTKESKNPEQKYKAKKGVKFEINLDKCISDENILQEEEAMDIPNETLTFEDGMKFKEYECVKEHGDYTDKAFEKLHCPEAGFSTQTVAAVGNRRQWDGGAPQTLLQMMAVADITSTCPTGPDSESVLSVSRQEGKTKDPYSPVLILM

## Nc1c(C(=O)NCc2ccc(C(=O)NCCCC3CCCCC3)cc2)cnn1-c1ccccc1 [SR-318]
[1]
  residual activity: 61%
[2]
  residual activity: 97%
[3]
  residual activity: 100%
[4]
  inhibition: 10.4%
[5]
  residual activity: 99%
[6]
  residual activity: 93%
[7]
  residual activity: 80%
[8]
  residual activity: 94%
[9]
  residual activity: 100%
[10]
  residual activity: 96%
[11]
  residual activity: 81%
[12]
  residual activity: 100%
[13]
  inhibition: 21.8%
[14]
  residual activity: 44%
[15]
  residual activity: 100%
[16]
  residual activity: 100%
[17]
  residual activity: 100%
[18]
  residual activity: 100%
[19]
  residual activity: 100%
[20]
  residual activity: 100%
[21]
  residual activity: 100%
[22]
  residual activity: 43%
[23]
  residual activity: 100%
[24]
  residual activity: 100%
[25]
  residual activity: 100%
[26]
  residual activity: 100%
[27]
  residual activity: 100%
[28]
  residual activity: 98%
[29]
  residual activity: 100%
[30]
  residual activity: 100%
[31]
  residual activity: 94%
[32]
  residual activity: 80%
[33]
  residual activity: 99%
[34]
  residual activity: 100%
[35]
  inhibition: 8.69%
[36]
  residual activity: 39%
[37]
  residual activity: 100%
[38]
  residual activity: 100%
[39]
  residual activity: 96%
[40]
  residual activity: 100%
[41]
  residual activity: 91%
[42]
  residual activity: 95%
[43]
  residual activity: 84%
[44]
  residual activity: 100%
[45]
  residual activity: 100%

## O=C(NCCCC1CCCCC1)c1ccc(CNC(=O)c2cnn(-c3ccccc3)c2C(F)(F)F)cc1 [SR-321]
[1]
  residual activity: 78%
[2]
  residual activity: 100%
[3]
  residual activity: 100%
[4]
  inhibition: 9.89%
[5]
  residual activity: 100%
[6]
  residual activity: 90%
[7]
  residual activity: 100%
[8]
  residual activity: 88%
[9]
  residual activity: 100%
[10]
  residual activity: 76%
[11]
  residual activity: 91%
[12]
  residual activity: 92%
[13]
  inhibition: 21.7%
[14]
  residual activity: 100%
[15]
  residual activity: 91%
[16]
  residual activity: 100%
[17]
  residual activity: 95%
[18]
  residual activity: 76%
[19]
  residual activity: 83%
[20]
  residual activity: 88%
[21]
  residual activity: 100%
[22]
  residual activity: 100%
[23]
  residual activity: 100%
[24]
  residual activity: 85%
[25]
  residual activity: 100%
[26]
  residual activity: 99%
[27]
  residual activity: 100%
[28]
  residual activity: 100%
[29]
  residual activity: 94%
[30]
  residual activity: 77%
[31]
  residual activity: 96%
[32]
  residual activity: 98%
[33]
  residual activity: 100%
[34]
  residual activity: 89%
[35]
  inhibition: -3.62%
[36]
  residual activity: 57%
[37]
  residual activity: 100%
[38]
  residual activity: 93%
[39]
  residual activity: 79%
[40]
  residual activity: 100%
[41]
  residual activity: 88%
[42]
  residual activity: 100%
[43]
  residual activity: 58%
[44]
  residual activity: 80%
[45]
  residual activity: 78%
